Measured values: patent US8507493B2 (AbbVie Inc., priority 2009, dated 2013)
pKi: −log10 of the molar value. Read-outs that look alike come from different tables or passages of the source.

How the values were obtained:
human 11β-HSD1 = target: T1, human 11β-HSD1 (Homo sapiens, UniProt P28845); test: Human 11β-HSD1 enzymatic SPA assay; type: biochemical; conditions: truncated (24-287aa) human 11β-HSD1, apparent Ki from IC50 by Cheng-Prusoff
T1 construct: truncated (24-287aa) human 11β-HSD1 enzyme; made in house; host or cells: E. coli (lysate, not purified)
T1 sequence (P28845 24-287): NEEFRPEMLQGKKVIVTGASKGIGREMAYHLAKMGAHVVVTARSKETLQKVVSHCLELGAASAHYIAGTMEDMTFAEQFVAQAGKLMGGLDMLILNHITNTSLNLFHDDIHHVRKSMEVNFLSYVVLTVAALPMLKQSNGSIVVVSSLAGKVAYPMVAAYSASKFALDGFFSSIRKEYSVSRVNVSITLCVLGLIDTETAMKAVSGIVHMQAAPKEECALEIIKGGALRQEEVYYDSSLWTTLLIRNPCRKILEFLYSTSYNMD
Method: The ability of test compounds to inhibit human 11β-HSD1 enzymatic activity in vitro was evaluated in a Scintillation Proximity Assay (SPA). Tritiated-cortisone substrate, NADPH cofactor and titrated compound were incubated with truncated (24-287aa) human 11β-HSD1 enzyme at room temperature to allow the conversion to cortisol to occur. The reaction was stopped by adding a non-specific 11β-HSD inhibitor, glycyrrhetinic acid. The tritiated cortisol was captured by a mixture of an anti-cortisol monoclonal antibody and SPA beads coated with anti-mouse antibodies. The reaction plate was shaken at room temperature and the radiolabel bound to SPA beads was then measured on a scintillation counter. The 11β-HSD1 assay was carried out in 96-well microtiter plates in a total volume of […]. To start the assay, 188 μL of master mix which contained 75 nM ^3H-cortisone, 100 nM cortisone and 181 μM NADPH was added to the wells. In order to drive the reaction in the 11β-reductase direction, 1 mM glucose-6-phosphate (G-6-P) and 1 U/mL G-6-P dehydrogenase were also added as a NADPH generating system. Solid compound was dissolved in dimethyl sulfoxide to make a 10 mM stock followed by a subsequent 10-fold serial dilution with dimethyl sulfoxide. Each compound solution in dimethyl sulfoxide was 10-fold diluted in Tris/EDTA buffer (pH 7.4). 22 μL of titrated compound were then added in duplicate to the substrate. Reactions were initiated by the addition of 10 μL of 0.1 mg/mL E. coli lysates overexpressing 11β-HSD1 enzyme. After shaking and incubating plates for 30 minutes at room temperature, reactions were stopped by adding 10 μL of 1 mM glycyrrhetinic acid. The product, tritiated cortisol, was captured by adding 10 μL of 1 μM monoclonal mouse anti-cortisol antibodies and 50 μL of SPA beads coated with anti-mouse antibodies. After shaking for 30 minutes, plates were read in a Microbeta scintillation counter. Percent inhibition was calculated based on the background and the maximal signal. Wells that contained substrate without compound or enzyme were used as the background, while the wells that contained substrate and enzyme without any compound were considered as maximal signal. Percent of inhibition of each compound was calculated relative to the maximal signal and IC50 curves were generated. Assuming competitive inhibition the Cheng-Prusoff equation was used to calculate apparent Ki values from the IC50 values. This assay was applied to 11β-HSD2 as well, whereby 6 nM tritiated cortisol and 250 uM NAD^+ were used as substrate and cofactor, respectively.

patients = conditions: cited from earlier work

Compound	pKi (human 11β-HSD1)	lowered intraocular pressure (patients; treatment for 4 days) [%]	lowered intraocular pressure (patients; treatment for 7 days) [%]
CC(C)(Oc1ccc(Cl)cc1F)/C(=N\C#N)NC1C2CC3CC1CC(C(N)=O)(C3)C2 (centres unmarked) [Example 74, (E)-4-{[(1E)-2-(4-chloro-2-fluorophenoxy)-N-cyano-2-methylpropanimidoyl]amino}adamantane-1-carboxamide]	≥ 8.00		
CC(C)(Oc1ccc(Cl)cn1)C(=NC#N)NC1C2CC3CC1CC(C(N)=O)(C3)C2 (centres unmarked) [Example 75, (E)-4-({(1E)-2-[(5-chloropyridin-2-yl)oxy]-N-cyano-2-methylpropanimidoyl}amino)adamantane-1-carboxamide]	7.00 to 8.00		
[H]/N=C(/NC1C2CC3CC1CC(C(N)=O)(C3)C2)C(C)(C)Oc1ccccc1 (centres unmarked) [Example 76, (E)-4-[(2-methyl-2-phenoxypropanimidoyl)amino]adamantane-1-carboxamide]	< 6.00		
CC(C)(Oc1ccccn1)/C(=N\C#N)NC1C2CC3CC1CC(S(C)(=O)=O)(C3)C2 (centres unmarked) [Example 77, (1E)-N′-cyano-2-methyl-N-[(E)-5-(methylsulfonyl)adamantan-2-yl]-2-(pyridin-2-yloxy)propanimidamide]	6.00 to 7.00		
CC(C)(Oc1ccccc1F)/C(=N\C#N)NC1C2CC3CC1CC(C#N)(C3)C2 (centres unmarked) [Example 78, (1E)-N′-cyano-N-[(E)-5-cyanoadamantan-2-yl]-2-(2-fluorophenoxy)-2-methylpropanimidamide]	7.00 to 8.00		
CC(C)(Oc1ccccc1F)C(=NC#N)NC1C2CC3CC1CC(S(N)(=O)=O)(C3)C2 (centres unmarked) [Example 79, (1E)-N′-cyano-2-(2-fluorophenoxy)-2-methyl-N-[(E)-5-sulfamoyladamantan-2-yl]propanimidamide]	7.00 to 8.00		
CC(C)(Oc1ccccc1F)C(=NC#N)NC1C2CC3CC1CC(O)(C3)C2 (centres unmarked) [Example 80, (1E)-N′-cyano-2-(2-fluorophenoxy)-N-[(E)-5-hydroxyadamantan-2-yl]-2-methylpropanimidamide]	≥ 8.00		
CC(C)(Oc1ccccc1)C(=NC#N)NC12CCC(C(N)=O)(CC1)C2 [Example 81, 4-{[N-cyano-2-methyl-2-phenoxypropanimidoyl]amino}bicyclo[2.2.1]heptane-1-carboxamide]	< 6.00		
CC(C)(Oc1ccccc1)C(=NC#N)NC12CCC(C(N)=O)(CC1)CC2 [Example 82, 4-{[N-cyano-2-methyl-2-phenoxypropanimidoyl]amino}bicyclo[2.2.2]octane-1-carboxamide]	7.00 to 8.00		
CC(C)(Oc1ccccc1)C(=NC#N)NC12CCC(C#N)(CC1)C2 [Example 83, N′-cyano-N-(4-cyanobicyclo[2.2.1]hept-1-yl)-2-methyl-2-phenoxypropanimidamide]	6.00 to 7.00		
CC(C)(Oc1ccccc1)C(=NC#N)NC12CCC(C#N)(CC1)CC2 [Example 84, N′-cyano-N-(4-cyanobicyclo[2.2.2]oct-1-yl)-2-methyl-2-phenoxypropanimidamide]	6.00 to 7.00		
CC(C)(Oc1ccc(Cl)cc1)C(=NC#N)NC12CCC(C(F)F)(CC1)CC2 [Example 85, 2-(4-chlorophenoxy)-N′-cyano-N-[4-(difluoromethyl)bicyclo[2.2.2]oct-1-yl]-2-methylpropanimidamide]	6.00 to 7.00		
CC(C)(Oc1ccccc1)C(=NC#N)NC12CCC(C(F)F)(CC1)CC2 [Example 86, N-cyano-N-[4-(difluoromethyl)bicyclo[2.2.2]oct-1-yl]-2-methyl-2-phenoxypropanimidamide]	7.00 to 8.00		
CC(C)(Oc1ccccc1)C(=NC#N)NC12CCC(C(=O)O)(CC1)CC2 [Example 87, 4-{[N-cyano-2-methyl-2-phenoxypropanimidoyl]amino}bicyclo[2.2.2]octane-1-carboxylic acid]	< 6.00		
CC(C)(Oc1ccc(Cl)cc1)C(=NC#N)NC12CCC(C(N)=O)(CC1)C2 [Example 88, 4-{[2-(4-chlorophenoxy)-N-cyano-2-methylpropanimidoyl]amino}bicyclo[2.2.1]heptane-1-carboxamide]	6.00 to 7.00		
CC(C)(Oc1ccccc1)C(=NC#N)NC12CCC(C(F)F)(CC1)C2 [Example 89, N′-cyano-N-[4-(difluoromethyl)bicyclo[2.2.1]hept-1-yl]-2-methyl-2-phenoxypropanimidamide]	7.00 to 8.00		
COc1ccc(Cl)cc1C(=NC#N)N[C@@H]1[C@@H]2C[C@@H]3C[C@H]1C[C@@](O)(C3)C2 [Example 93, 5-chloro-N′-cyano-N-[(E)-5-hydroxyadamantan-2-yl]-2-methoxybenzenecarboximidamide]	< 6.00		
CC1(C)[C@@H](OC(=O)CCC(=O)O)CC[C@]2(C)[C@H]3C(=O)C=C4[C@@H]5C[C@@](C)(C(=O)O)CC[C@]5(C)CC[C@@]4(C)[C@]3(C)CC[C@@H]12 [carbenoxolone]		10	17
(1E)-N-(adamantan-1-yl)-N-cyano-2-(2,4-difluorophenoxy)-2-methylpropanimidamide [Example 71]	7.00 to 8.00		
